{"source": "patent US9765067B2", "about": "“Thiophen-2-yl-pyridin-2-yl-1H-pyrazole-4-carboxylic acid derivatives and the use thereof as soluble guanylate cyclase activators” (Novartis AG, priority 2014, dated 2017)"}
{"target": "T1, soluble guanylate cyclase (human GUCYA3/GUCYB3) overexpressed in CHO cells (Homo sapiens, UniProt Q02108+Q02153)", "T1 construct": "expressed in transfected cells", "T1 sequence (Q02108 1-690 partner)": "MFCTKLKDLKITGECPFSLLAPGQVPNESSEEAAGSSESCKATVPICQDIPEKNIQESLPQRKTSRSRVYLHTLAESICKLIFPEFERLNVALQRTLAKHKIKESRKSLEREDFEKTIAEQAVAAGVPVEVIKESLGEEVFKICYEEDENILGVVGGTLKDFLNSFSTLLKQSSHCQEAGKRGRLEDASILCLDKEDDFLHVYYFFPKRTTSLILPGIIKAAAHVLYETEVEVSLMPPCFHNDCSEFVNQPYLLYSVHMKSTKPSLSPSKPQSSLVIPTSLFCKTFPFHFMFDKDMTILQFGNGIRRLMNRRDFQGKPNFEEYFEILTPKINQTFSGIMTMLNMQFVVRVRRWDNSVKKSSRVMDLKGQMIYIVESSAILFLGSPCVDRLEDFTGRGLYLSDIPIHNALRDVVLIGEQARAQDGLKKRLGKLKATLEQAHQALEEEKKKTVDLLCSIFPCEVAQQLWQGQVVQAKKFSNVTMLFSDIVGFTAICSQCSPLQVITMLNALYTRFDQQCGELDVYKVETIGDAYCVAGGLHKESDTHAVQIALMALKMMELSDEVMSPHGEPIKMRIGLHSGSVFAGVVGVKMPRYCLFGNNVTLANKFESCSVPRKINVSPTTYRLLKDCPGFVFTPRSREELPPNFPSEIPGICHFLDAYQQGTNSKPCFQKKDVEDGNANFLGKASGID", "T1 sequence (Q02153 1-619)": "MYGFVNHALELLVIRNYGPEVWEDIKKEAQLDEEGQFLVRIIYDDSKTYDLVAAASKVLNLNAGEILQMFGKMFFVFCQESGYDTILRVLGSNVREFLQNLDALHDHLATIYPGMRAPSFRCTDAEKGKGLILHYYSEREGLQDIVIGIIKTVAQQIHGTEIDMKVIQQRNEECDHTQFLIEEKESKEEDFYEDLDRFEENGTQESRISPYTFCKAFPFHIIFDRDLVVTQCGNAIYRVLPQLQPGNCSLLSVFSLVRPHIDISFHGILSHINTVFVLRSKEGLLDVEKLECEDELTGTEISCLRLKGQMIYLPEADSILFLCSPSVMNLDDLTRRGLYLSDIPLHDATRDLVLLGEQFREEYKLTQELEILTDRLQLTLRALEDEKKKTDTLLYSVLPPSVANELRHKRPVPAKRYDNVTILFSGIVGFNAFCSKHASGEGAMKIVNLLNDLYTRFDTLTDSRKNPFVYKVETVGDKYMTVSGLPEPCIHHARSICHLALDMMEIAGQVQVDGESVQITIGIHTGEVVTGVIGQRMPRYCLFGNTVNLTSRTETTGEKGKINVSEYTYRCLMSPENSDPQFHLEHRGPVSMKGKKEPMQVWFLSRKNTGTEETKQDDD", "experiment": "CHO cellular assay (cGMP production, HTRF)", "format": "cell-based", "settings": "CHO K1 clone 8E10 overexpressing human sGC, Cisbio HTRF, 1 h room temperature, 1 mM IBMX, 20 uM ODQ, minimum quantification limit 0.5 nM", "procedure,_shortened": "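Stable CHO K1 clone expressing human GUCYA3/GUCYB3. Compounds applied 1 h at room temperature in HBSS, 0.1% BSA, 1 mM IBMX, 20 uM ODQ, 0.5% DMSO. cGMP measured by HTRF and interpolated from a standard curve; EC50 from 4-parameter sigmoidal fit.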", "units": {"EC50": "nM"}}
{"smiles": "CCc1c(C2CCN(C(=O)C3CC3)CC2)ccc(OCc2cc(C)sc2-c2cccc(-n3ncc(C(=O)O)c3C(F)(F)F)n2)c1F", "note": "[Example 35-13, 1-(6-(3-((4-(1-(Cyclopropanecarbonyl)piperidin-4-y1)-3-ethyl-2-fluorophenoxy)methyl)-5-methylthiophen-2-yl)pyridin-2-yl)-5-(trifluoromethyl)-1H-pyrazole-4-carboxylic acid]", "EC50": 1}
{"smiles": "CCc1cc(OCc2cc(C)sc2-c2cccc(-n3ncc(C(=O)O)c3C(F)(F)F)n2)cnc1C1CCN(C(=O)C2CC2)CC1", "note": "[Example 35-14, 1-(6-(3-(((6-(1-(Cyclopropanecarbonyl)piperidin-4-yl)-5-ethylpyridin-3-yl)oxy)methyl)-5-methylthiophen-2-yl)pyridin-2-yl)-5-(trifluoromethyl)-1H-pyrazole-4-carboxylic acid]", "EC50": 15}
{"smiles": "CCCc1cc(OCc2cc(C)sc2-c2cccc(-n3ncc(C(=O)O)c3C(F)(F)F)n2)ccc1C1CCN(C(=O)C2CC2)CC1", "note": "[Example 35-15, 1-(6-(3-((4-(1-(Cyclopropanecarbonyl)piperidin-4-yl)-3-propylphenoxy)methyl)-5-methylthiophen-2-yl)pyridin-2-yl)-5-(trifluoromethyl)-1H-pyrazole-4-carboxylic acid]", "EC50": 1.4}
{"smiles": "Cc1cc(C2CCN(C(=O)C3CC3)CC2)ccc1NC(C)c1ccsc1-c1cccc(-n2ncc(C(=O)O)c2C(F)(F)F)c1", "note": "(stereo not drawn) [Example 36, 1-(3-(3-(1-((4-(1-(Cyclopropanecarbonyl)piperidin-4-yl)-2-methylphenyl)amino)ethyl)thiophen-2-yl)phenyl)-5-(trifluoromethyl)-1H-pyrazole-4-carboxylic acid]", "EC50": 15}
{"smiles": "CCc1cc(NCc2cc(C)sc2-c2cccc(-n3ncc(C(=O)O)c3CC)n2)ccc1C1CCN(C(=O)C2CC2)CC1", "note": "[Example 37, 1-(6-(3-(((4-(1-(Cyclopropanecarbonyl)piperidin-4-yl)-3-ethylphenyl)amino)methyl)-5-methylthiophen-2-yl)pyridin-2-yl)-5-ethyl-1H-pyrazole-4-carboxylic acid]", "EC50": "≤ 0.5"}
{"smiles": "CCc1cc(NCc2c(C(F)(F)F)csc2-c2cccc(-n3ncc(C(=O)O)c3CC)n2)ccc1C1CCN(C(=O)C2CC2)CC1", "note": "[Example 38, 1-(6-(3-(((4-(1-(Cyclopropanecarbonyl)piperidin-4-yl)-3-ethylphenyl)amino)methyl)-4-(trifluoromethyl)thiophen-2-yl)pyridin-2-yl)-5-ethyl-1H-pyrazole-4-carboxylic acid]", "EC50": "≤ 0.5"}
{"smiles": "CCc1nc(OCc2cc(C)sc2-c2cccc(-n3ncc(C(=O)O)c3C(F)(F)F)n2)ccc1C1CCN(C(=O)C2CC2)CC1", "note": "[Example 39, 1-(6-(3-(((5-(1-(Cyclopropanecarbonyl)piperidin-4-yl)-6-ethylpyridin-2-yl)oxy)methyl)-5-methylthiophen-2-yl)pyridin-2-yl)-5-(trifluoromethyl)-1H-pyrazole-4-carboxylic acid]", "EC50": 1}
{"smiles": "Cc1cc(C2CCN(CC(F)(F)F)CC2)ccc1OCc1cc(C(C)C)sc1-c1cccc(-n2ncc(C(=O)O)c2C(F)(F)F)n1", "note": "[Example 40, 1-(6-(5-Isopropyl-3-((2-methyl-4-(1-(2,2,2-trifluoroethyl)piperidin-4-yl)phenoxy)methyl)thiophen-2-yl)pyridin-2-yl)-5-(trifluoromethyl)-1H-pyrazole-4-carboxylic acid]", "EC50": 370}
{"smiles": "CCCc1cc(COc2ccc(C3CCN(CC(F)(F)F)CC3)cc2C)c(-c2cccc(-n3ncc(C(=O)O)c3C(F)(F)F)n2)s1", "note": "[Example 41, 1-(6-(3-((2-Methyl-4-(1-(2,2,2-trifluoroethyl)piperidin-4-yl)phenoxy)methyl)-5-propylthiophen-2-yl)pyridin-2-yl)-5-(trifluoromethyl)-1H-pyrazole-4-carboxylic acid]", "EC50": 428}
{"smiles": "Cc1cc(C2CCN(C(=O)C3CNC3)CC2)ccc1OCc1ccsc1-c1cccc(-n2ncc(C(=O)O)c2C(F)(F)F)n1", "note": "[Example 43, 1-(6-(3-((4-(1-(Azetidine-3-carbonyl)piperidin-4-yl)-2-methylphenoxy)methyl)thiophen-2-yl)pyridin-2-yl)-5-(trifluoromethyl)-1H-pyrazole-4-carboxylic acid]", "EC50": 887}
{"smiles": "CCc1c(C(=O)O)cnn1-c1cccc(-c2sc(C)cc2CCc2ccc(C3CCN(C(=O)C4CC4)CC3)cc2C)n1", "note": "[Example 45, 1-(6-(3-(4-(1-(Cyclopropanecarbonyl)piperidin-4-yl)-2-methylphenethyl)-5-methylthiophen-2-yl)pyridin-2-yl)-5-ethyl-1H-pyrazole-4-carboxylic acid]", "EC50": "≤ 0.5"}
{"smiles": "Cc1cc(CCc2ccc(C3CCN(C(=O)OC(C)(C)C)CC3)cc2C)c(-c2cccc(-n3ncc(C(=O)O)c3C(F)(F)F)n2)s1", "note": "[Example 46, 1-(6-(3-(4-(1-(tert-Butoxycarbonyl)piperidin-4-yl)-2-methylphenethyl)-5-methylthiophen-2-yl)pyridin-2-yl)-5-(trifluoromethyl)-1H-pyrazole-4-carboxylic acid]", "EC50": 3}
